Test [1] has as its target T1, human CB1 receptor (Homo sapiens, UniProt P21554).
T1 construct: expressed in transfected cells; host or cells: HEK293
The test can be described thus: bioSensAll GAPL-Gi2 BRET biosensor assay in HEK293 cells transfected with hCB1; test compound added before EC75-80 of agonist CP55,940 (0.1 nM). Type of test: cell-based. The settings on record: vs CP55,940 0.1 nM (EC75-80), read-out: CB1 wt Gi2 IC50. The essentials: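 Test compounds at 12 doses up to 600 nM preceded a 0.1 nM CP55,940 challenge in hCB1/GAPL-Gi2 HEK293 cells. After overnight 37° C incubation, methoxy e-coelenterazine (2 µM final) was added and the 515/400 nm BRET ratio normalized to positive and negative controls.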
(In general: Bioluminescence resonance energy transfer reports proximity on the nanometre scale.)

The target in test [2] is T1, human CB1 receptor. The test can be described thus: bioSensAll β-arrestin2 plasma membrane translocation (+GRK2) BRET biosensor assay in HEK293 cells transfected with hCB1; test compound added before EC75-80 of agonist CP55,940 (100 nM). The format is cell-based. The settings on record: βArrestin2 (+GRK2) BRET biosensor, vs CP55,940 100 nM (EC75-80), read-out: CB1 wt βarr2 IC50. The method, boiled down: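 HEK293 cells co-transfected with hCB1 and β-arrestin2 PM-translocation BRET biosensor (+GRK2); 48 h post-transfection in HBSS, test compound (0–600 nM, 12 points) added 3–5 min before CP55,940 at 100 nM (EC75-80). Overnight incubation at 37 °C; BRET (515/400 nm) read after 2 µM e-coelenterazine Prolume Purple, standardized to controls.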

T1 sequence (P21554 whole entry): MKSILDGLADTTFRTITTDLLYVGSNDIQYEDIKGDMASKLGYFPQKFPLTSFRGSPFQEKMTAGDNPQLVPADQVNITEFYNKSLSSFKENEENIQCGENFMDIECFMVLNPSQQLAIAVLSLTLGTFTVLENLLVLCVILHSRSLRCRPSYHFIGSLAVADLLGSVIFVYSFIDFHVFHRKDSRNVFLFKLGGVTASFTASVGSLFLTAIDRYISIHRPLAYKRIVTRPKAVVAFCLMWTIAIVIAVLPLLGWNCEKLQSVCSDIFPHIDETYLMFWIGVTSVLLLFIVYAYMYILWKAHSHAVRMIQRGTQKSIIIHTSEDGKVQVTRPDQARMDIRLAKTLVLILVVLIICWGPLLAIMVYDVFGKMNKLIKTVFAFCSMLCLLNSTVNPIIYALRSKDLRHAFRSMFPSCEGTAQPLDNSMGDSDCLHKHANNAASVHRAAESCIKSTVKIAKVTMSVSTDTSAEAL

As a reminder, the IC50 is the concentration that inhibits the measured activity by half. In the case of `CN(C)CCNc1nc(N2CCC(C)(C(N)=O)CC2)c2nc(-c3ccccc3Cl)n(-c3ccc(Cl)cc3)c2n1` [Compound 102, 1-[8-(2-chlorophenyl)-9-(4-chlorophenyl)-2-[2-(dimethylamino)ethylamino]purin-6-yl]-4-methyl-piperidine-4-carboxamide], the half-inhibitory concentration (IC50) stood at 50 nM in test [1] and 40.1 nM in test [2].
Taken in the same sequence, the figures for `CN(CCO)c1nc(N2CC(C(N)=O)C2)c2nc(-c3ccccc3Cl)n(-c3ccc(Cl)cc3)c2n1` [Compound 72] were 1.1 nM and 3.81 nM.
For `CN(CC(C)(C)O)c1nc(-c2ccc(C(F)(F)F)nc2)c2nc(-c3ccccc3Cl)n(-c3ccc(Cl)cc3)c2n1` [Compound 124], the IC50 in test [1] was determined as 3.23 nM; in test [2] it was 12.1 nM.
In the case of `CN(CCO)c1nc(N2CCC3(CC2)NC(=O)NC3=O)c2nc(-c3ccccc3Cl)n(-c3ccc(Cl)cc3)c2n1` [Compound 190], the IC50 in test [1] was 2.66 nM; in test [2] it was 23.7 nM.
Taken in the same sequence, the figures for `CC(C)(O)COc1nc(N2CCNCC(F)(F)C2)c2nc(-c3ccccc3Cl)n(-c3ccc(Cl)cc3)c2n1` [Compound 221] were 4.04 nM and 30.6 nM.
Taken in the same sequence, the figures for `CC(C)(O)CNc1nc(N2CCC(C)(C(N)=O)CC2)c2nc(-c3ccc(C#N)nc3)n(-c3ccc(Cl)cc3)c2n1` [Compound 111, 1-[9-(4-chlorophenyl)-8-(6-cyano-3-pyridyl)-2-[(2-hydroxy-2-methyl-propyl)amino]purin-6-yl]-4-methyl-piperidine-4-carboxamide] were 18.4 nM and 53.7 nM.
Taken in the same sequence, the figures for `CN(CCO)c1nc(N2CCC(C)(C(N)=O)CC2)c2nc(-c3ccccn3)n(-c3ccc(Cl)cc3)c2n1` [Compound 63, 1-[9-(4-chlorophenyl)-2-[2-hydroxyethyl(methyl)amino]-8-(2-pyridyl)purin-6-yl]-4-methyl-piperidine-4-carboxamide] were 9.9 nM and 65.1 nM.
Regarding `CC(O)COc1nc(N2CCC(C)(C(N)=O)CC2)c2nc(-c3ccccc3Cl)n(-c3ccc(Cl)cc3)c2n1` (single isomer, unassigned) [Compound 8, 1-[8-(2-chlorophenyl)-9-(4-chlorophenyl)-2-(2-hydroxypropoxy)purin-6-yl]-4-methyl-piperidine-4-carboxamide], the IC50 in test [1] is 0.922 nM; in test [2], 2.74 nM.
Taken in the same sequence, the figures for `CCNC1(C(N)=O)CCN(c2nc(Cl)nc3c2nc(-c2ccccc2Cl)n3-c2ccc(Cl)cc2)CC1` [Compound 144, 1-(2-chloro-8-(2-chlorophenyl)-9-(4-chlorophenyl)-9H-purin-6-yl)-4-(ethylamino)piperidine-4-carboxamide] were 1.35 nM and 6.22 nM.
For the compound `CN(CCO)c1nc(N2CCC(C)(C(N)=O)CC2)c2nc(-c3ccccc3Cl)n(-c3ccc(Cl)cc3)c2n1` [Compound 158, 1-[8-(2-chlorophenyl)-9-(4-chlorophenyl)-2-((2-hydroxyethyl)(methyl)amino)-purin-6-yl]-4-methyl-piperidine-4-carboxamide], the results for the concentration for half-maximal inhibition (IC50) in test [1] and in test [2] were 0.555 nM and 0.931 nM, respectively.
Taken in the same sequence, the figures for `CN(CCO)c1nc(NC2CN(C(=O)C(F)(F)F)C2)c2nc(-c3ccccc3Cl)n(-c3ccc(Cl)cc3)c2n1` [Compound 179] were 0.244 nM and 1.92 nM.
Turning to `CCNC1(C(N)=O)CCN(c2nc(C#N)nc3c2nc(-c2ccccc2Cl)n3-c2ccc(Cl)cc2)CC1` [Compound 146, 1-(8-(2-chlorophenyl)-9-(4-chlorophenyl)-2-cyano-9H-purin-6-yl)-4-(ethylamino)piperidine-4-carboxamide], the half-inhibitory concentration (IC50) worked out at 0.718 nM in test [1] and 1.62 nM in test [2].
Taken in the same sequence, the figures for `CN(CCO)c1nc(N2CCN(C(N)=O)CC2)c2nc(-c3ccccc3Cl)n(-c3ccc(Cl)cc3)c2n1` [Compound 157] were 0.938 nM and 6.04 nM.
Taken in the same sequence, the figures for `CN(CCO)c1nc(N(C)C2CCOC2)c2nc(-c3ccccc3Cl)n(-c3ccc(Cl)cc3)c2n1` (centres unmarked) [Compound 197] were 0.161 nM and 1.19 nM.
For `CCOC1(C(N)=O)CCN(c2nc(OCC(C)(C)O)nc3c2nc(-c2ccccc2Cl)n3-c2ccc(Cl)cc2)CC1` [Compound 207], the results for the IC50 in test [1] and in test [2] were 0.652 nM and 2.02 nM, respectively.
On to `CCOC1(C(N)=O)CCN(c2nc(N(C)CCO)nc3c2nc(-c2ccccc2Cl)n3-c2ccc(Cl)cc2)CC1` [Compound 182], for which the concentration for half-maximal inhibition (IC50) in test [1] is 0.175 nM; in test [2], 0.661 nM.
Taken in the same sequence, the figures for `CN(CCO)c1nc(N2CCO[C@H](CO)C2)c2nc(-c3ccccc3Cl)n(-c3ccc(Cl)cc3)c2n1` [Compound 170] were 0.597 nM and 3.49 nM.
Taken in the same sequence, the figures for `CC(C)OC1(C(N)=O)CCN(c2nc(N3CCC[C@H]3CO)nc3c2nc(-c2ccc(C#N)nc2)n3-c2ccc(Cl)cc2)CC1` [Compound 136, 1-[9-(4-chlorophenyl)-8-(6-cyano-3-pyridyl)-2-[(2S)-2-(hydroxymethyl)pyrrolidin-1-yl]purin-6-yl]-4-isopropoxy-piperidine-4-carboxamide] were 0.848 nM and 1.75 nM.
`CN(CC1(O)CC1)c1nc(N2CCC(C)(C(N)=O)CC2)c2nc(-c3ccccc3Cl)n(-c3ccc(Cl)cc3)c2n1` [Compound 41, 1-[8-(2-chlorophenyl)-9-(4-chlorophenyl)-2-[(1-hydroxycyclopropyl)methyl-methyl-amino]purin-6-yl]-4-methyl-piperidine-4-carboxamide]: the values for the IC50 in test [1] and in test [2] were 1.65 nM and 7.33 nM, respectively.
Taken in the same sequence, the figures for `Cc1cnn(-c2nc(N3CCC(C(F)(F)F)CC3)c3nc(-c4ccccc4Cl)n(-c4ccc(Cl)cc4)c3n2)c1` [Compound 21, 8-(2-chlorophenyl)-9-(4-chlorophenyl)-2-(4-methylpyrazol-1-yl)-6-[4-(trifluoromethyl)-1-piperidyl]purine] were 4.37 nM and 28.9 nM.
Taken in the same sequence, the figures for `CC1(C(N)=O)CCN(c2nc(S(C)(=O)=O)nc3c2nc(-c2ccccc2Cl)n3-c2ccc(Cl)cc2)CC1` [Compound 68, 1-[8-(2-chlorophenyl)-9-(4-chlorophenyl)-2-methylsulfonyl-purin-6-yl]-4-methyl-piperidine-4-carboxamide] were 1.69 nM and 10.7 nM.
Taken in the same sequence, the figures for `CCOC1(C(N)=O)CCN(c2nc(NCC(C)(C)O)nc3c2nc(-c2ccc(C#N)nc2)n3-c2ccc(Cl)cc2)CC1` [Compound 132, 1-[9-(4-chlorophenyl)-8-(6-cyano-3-pyridyl)-2-[(2-hydroxy-2-methyl-propyl)amino]purin-6-yl]-4-ethoxy-piperidine-4-carboxamide] were 17.8 nM and above 5000 nM.
For the compound `CCOC1(C(N)=O)CCN(c2nc(OCC(C)(C)O)nc3c2nc(-c2ccc(C#N)nc2)n3-c2ccc(Cl)cc2)CC1` [Compound 120, 1-[9-(4-chlorophenyl)-8-(6-cyano-3-pyridyl)-2-(2-hydroxy-2-methyl-propoxy)purin-6-yl]-4-ethoxy-piperidine-4-carboxamide], the half-inhibitory concentration (IC50) in test [1] came to 16.9 nM; in test [2] it was 25.4 nM.
Taken in the same sequence, the figures for `O=S1(=O)CCN(c2nc(N3CCC(C(F)(F)F)CC3)c3nc(-c4ccccc4Cl)n(-c4ccc(Cl)cc4)c3n2)CC1` [Compound 32, 4-[8-(2-chlorophenyl)-9-(4-chlorophenyl)-6-[4-(trifluoromethyl)-1-piperidyl]purin-2-yl]-1,4-thiazinane 1,1-dioxide] were 0.509 nM and 3.02 nM.
Taken in the same sequence, the figures for `Cc1nc(N2CCC(C)(C(N)=O)CC2)c2nc(-c3ccccc3Cl)n(-c3ccc(Cl)cc3)c2n1` [Compound 127] were 9.42 nM and 40.9 nM.
Turning to `OC[C@@H]1CCCN1c1nc(-c2ccc(C(F)(F)F)nc2)c2nc(-c3ccccc3Cl)n(-c3ccc(Cl)cc3)c2n1` [Compound 163], the half-inhibitory concentration (IC50) in test [1] is 0.491 nM; in test [2], 2.78 nM.
On to `C[C@@H](O)CNc1nc(N2CCC(C)(C(N)=O)CC2)c2nc(-c3ccccc3Cl)n(-c3ccc(Cl)cc3)c2n1` [Compound 83, 1-[8-(2-chlorophenyl)-9-(4-chlorophenyl)-2-[[(2R)-2-hydroxypropyl]amino]purin-6-yl]-4-methyl-piperidine-4-carboxamide], for which the results for the IC50 in test [1] and in test [2] were 1.16 nM and 6.26 nM, respectively.
In the case of `FC(F)(F)C1CCN(c2nc(N3C[C@H]4C[C@H]4C3)nc3c2nc(-c2ccccc2Cl)n3-c2ccc(Cl)cc2)CC1` [Compound 31, 2-[(1R,5S)-3-azabicyclo[3.1.0]hexan-3-yl]-8-(2-chlorophenyl)-9-(4-chlorophenyl)-6-[4-(trifluoromethyl)-1-piperidyl]purine], the IC50 in test [1] was 2.76 nM; in test [2], 21.8 nM.
Taken in the same sequence, the figures for `CN1CCN(c2nc(OCC(C)(C)O)nc3c2nc(-c2ccccc2Cl)n3-c2ccc(Cl)cc2)CC1` [Compound 227] were 4.78 nM and 11.7 nM.
`CC(=O)NC(=N)Nc1nc(N2CCC(C)(C(N)=O)CC2)c2nc(-c3ccccc3Cl)n(-c3ccc(Cl)cc3)c2n1` [Compound 18, 1-[2-[(N-acetylcarbamimidoyl)amino]-8-(2-chlorophenyl)-9-(4-chlorophenyl)purin-6-yl]-4-methyl-piperidine-4-carboxamide]: the figures for the half-maximal inhibitory concentration (IC50) in test [1] and in test [2] were 3.73 nM and 11.3 nM, respectively.
In the case of `CC(C)Oc1nc(OC[C@H](C)O)nc2c1nc(-c1ccccc1Cl)n2-c1ccc(Cl)cc1` [Compound 101], the values for the IC50 in test [1] and in test [2] were 1.53 nM and 16 nM, respectively.

(Values after patent US20250333418A1, “PURINE COMPOUNDS, COMPOSITIONS COMPRISING THEM AND USES THEREOF” (Novo Nordisk A/S, priority 2022, published 2025).)
